In ChEMBL document CHEMBL6120971 (J Med Chem, 2024):
Activity calls are given as the source filed them. No cut-off for these calls is given here.

Columns and labels:
[1] = Half-life in male Sprague-Dawley rat at 10 mg/kg, iv measured after 24 hrs by LC-MS/MS analysis; format: ADME, organism-based; conditions: in vivo
[2] = Downregulation of c-MET protein level in human MKN-45 cells assessed as residual activity at 100 nM incubated for 24 hrs by MS-based quantitative proteomics analysis relative to control; format: functional
MKN-45 [3] = assay: Antitumor activity against human MKN-45 cells xenografted in BALB/c nude mouse assessed as reduction in tumor growth at 10 mg/kg, po administered once daily for 21 days; format: functional, organism-based; conditions: time 21.0 day
[4] = Cmax in male Sprague-Dawley rat at 10 mg/kg, iv measured after 24 hrs by LC-MS/MS analysis; format: ADME, organism-based; conditions: in vivo
[5] = target: T1, Protein cereblon/Hepatocyte growth factor receptor (Homo sapiens, UniProt P08581+Q96SW2); assay: PROTAC activity at CRBN/c-MET in human MKN-45 cells assessed as induction of c-MET degradation incubated for 24 hrs by Western blot analysis; format: cell-based
Target sequence in this assay (P08581 whole entry): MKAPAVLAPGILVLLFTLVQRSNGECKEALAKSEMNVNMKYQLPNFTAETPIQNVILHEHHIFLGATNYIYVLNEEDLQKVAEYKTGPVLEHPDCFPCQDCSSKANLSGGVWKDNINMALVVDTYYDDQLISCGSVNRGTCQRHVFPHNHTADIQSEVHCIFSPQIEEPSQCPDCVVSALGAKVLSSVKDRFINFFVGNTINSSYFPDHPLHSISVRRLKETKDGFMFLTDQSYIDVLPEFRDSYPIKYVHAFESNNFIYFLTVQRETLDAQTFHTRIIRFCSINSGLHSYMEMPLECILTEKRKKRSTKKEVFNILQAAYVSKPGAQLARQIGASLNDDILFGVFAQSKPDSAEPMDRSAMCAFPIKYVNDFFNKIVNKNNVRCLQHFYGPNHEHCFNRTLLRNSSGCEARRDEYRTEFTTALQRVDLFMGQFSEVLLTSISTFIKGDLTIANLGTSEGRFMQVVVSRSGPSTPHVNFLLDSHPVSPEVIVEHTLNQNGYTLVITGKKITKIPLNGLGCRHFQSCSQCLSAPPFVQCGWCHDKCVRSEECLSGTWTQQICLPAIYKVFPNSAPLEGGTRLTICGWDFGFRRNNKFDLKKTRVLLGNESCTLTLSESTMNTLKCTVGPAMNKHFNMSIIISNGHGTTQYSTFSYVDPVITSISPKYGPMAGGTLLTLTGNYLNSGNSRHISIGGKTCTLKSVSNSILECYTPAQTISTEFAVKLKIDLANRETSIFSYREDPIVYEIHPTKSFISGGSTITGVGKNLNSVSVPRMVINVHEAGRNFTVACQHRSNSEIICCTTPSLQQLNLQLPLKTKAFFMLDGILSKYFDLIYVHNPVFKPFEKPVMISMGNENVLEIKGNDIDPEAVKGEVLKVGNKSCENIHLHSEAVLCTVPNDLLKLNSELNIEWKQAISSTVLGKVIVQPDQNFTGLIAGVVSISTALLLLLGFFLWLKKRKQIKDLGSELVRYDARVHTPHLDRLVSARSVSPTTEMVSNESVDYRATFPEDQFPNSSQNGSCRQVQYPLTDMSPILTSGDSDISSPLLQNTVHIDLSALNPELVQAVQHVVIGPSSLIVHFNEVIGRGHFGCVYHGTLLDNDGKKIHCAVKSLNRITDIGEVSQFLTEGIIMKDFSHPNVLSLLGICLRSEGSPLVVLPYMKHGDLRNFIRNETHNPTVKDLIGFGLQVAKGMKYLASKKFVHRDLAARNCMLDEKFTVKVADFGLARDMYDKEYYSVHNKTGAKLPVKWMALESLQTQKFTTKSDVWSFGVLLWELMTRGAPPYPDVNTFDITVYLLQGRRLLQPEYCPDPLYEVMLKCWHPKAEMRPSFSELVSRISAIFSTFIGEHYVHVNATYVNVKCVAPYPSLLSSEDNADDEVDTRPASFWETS
Target sequence in this assay (Q96SW2 whole entry): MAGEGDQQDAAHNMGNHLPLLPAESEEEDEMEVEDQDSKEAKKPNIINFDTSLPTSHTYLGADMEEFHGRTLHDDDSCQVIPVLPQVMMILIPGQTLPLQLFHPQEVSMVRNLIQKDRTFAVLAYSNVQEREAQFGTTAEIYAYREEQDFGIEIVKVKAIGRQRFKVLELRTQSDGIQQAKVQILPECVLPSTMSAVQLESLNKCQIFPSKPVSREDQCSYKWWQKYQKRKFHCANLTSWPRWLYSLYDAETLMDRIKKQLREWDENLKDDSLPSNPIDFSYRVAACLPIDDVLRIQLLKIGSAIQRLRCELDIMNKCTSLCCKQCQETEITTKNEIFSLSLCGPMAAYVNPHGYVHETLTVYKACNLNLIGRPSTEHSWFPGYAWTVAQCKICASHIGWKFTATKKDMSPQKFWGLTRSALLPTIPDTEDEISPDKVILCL

[6] = target: T1, Protein cereblon/Hepatocyte growth factor receptor; assay: PROTAC activity at CRBN/c-MET in human MKN-45 cells assessed as induction of c-MET degradation at 100 nM preincubated with MG132 for 2 hrs followed by compound addition and measured after 24 hrs by Western blot analysis; format: cell-based
Target sequence in this assay (P08581 25-1390 limits assumed): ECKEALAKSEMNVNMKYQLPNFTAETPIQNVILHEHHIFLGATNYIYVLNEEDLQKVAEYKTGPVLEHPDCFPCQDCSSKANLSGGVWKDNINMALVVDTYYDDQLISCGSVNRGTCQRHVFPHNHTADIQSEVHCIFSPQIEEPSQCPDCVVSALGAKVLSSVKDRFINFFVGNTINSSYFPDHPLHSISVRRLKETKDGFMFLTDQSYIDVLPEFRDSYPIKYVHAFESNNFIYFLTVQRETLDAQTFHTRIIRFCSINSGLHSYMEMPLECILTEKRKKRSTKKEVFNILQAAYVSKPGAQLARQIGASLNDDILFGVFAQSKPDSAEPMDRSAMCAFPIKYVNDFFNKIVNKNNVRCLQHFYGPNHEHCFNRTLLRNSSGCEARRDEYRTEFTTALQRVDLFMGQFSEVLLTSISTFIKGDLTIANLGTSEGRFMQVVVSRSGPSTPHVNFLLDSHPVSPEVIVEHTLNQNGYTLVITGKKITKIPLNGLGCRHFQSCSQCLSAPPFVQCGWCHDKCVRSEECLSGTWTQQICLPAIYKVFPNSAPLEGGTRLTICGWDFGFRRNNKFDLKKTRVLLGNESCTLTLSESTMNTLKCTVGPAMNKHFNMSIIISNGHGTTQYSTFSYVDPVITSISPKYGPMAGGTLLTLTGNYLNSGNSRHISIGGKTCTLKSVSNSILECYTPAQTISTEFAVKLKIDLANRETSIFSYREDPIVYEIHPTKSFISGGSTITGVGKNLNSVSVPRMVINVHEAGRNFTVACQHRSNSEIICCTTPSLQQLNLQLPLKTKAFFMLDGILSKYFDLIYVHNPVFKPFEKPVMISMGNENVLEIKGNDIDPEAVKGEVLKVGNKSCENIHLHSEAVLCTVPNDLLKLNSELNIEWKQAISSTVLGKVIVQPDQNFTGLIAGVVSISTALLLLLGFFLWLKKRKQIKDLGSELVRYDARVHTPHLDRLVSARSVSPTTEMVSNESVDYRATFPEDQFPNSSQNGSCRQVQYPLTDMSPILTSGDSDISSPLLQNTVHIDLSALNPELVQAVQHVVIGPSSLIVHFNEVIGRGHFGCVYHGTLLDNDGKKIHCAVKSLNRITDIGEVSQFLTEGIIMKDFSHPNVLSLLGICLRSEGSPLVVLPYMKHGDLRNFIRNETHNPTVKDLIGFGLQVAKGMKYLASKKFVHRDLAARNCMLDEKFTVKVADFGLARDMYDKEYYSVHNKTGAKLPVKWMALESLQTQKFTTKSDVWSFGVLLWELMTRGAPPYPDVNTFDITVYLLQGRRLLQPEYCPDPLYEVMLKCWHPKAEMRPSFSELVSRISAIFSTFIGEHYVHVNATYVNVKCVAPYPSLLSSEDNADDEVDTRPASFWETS
Target sequence in this assay (Q96SW2 whole entry partner): as the sequence (Q96SW2 whole entry) above

[7] = target: T1, Protein cereblon/Hepatocyte growth factor receptor; assay: PROTAC activity at CRBN/c-MET in human MKN-45 cells assessed as induction of c-MET degradation at 100 to 1000 nM incubated for 24 hrs by Western blot analysis relative to control; format: cell-based; conditions: dose 100-1000 nM
Target sequence in this assay (P08581 25-1390 limits assumed): as the sequence (P08581 25-1390 limits assumed) above
Target sequence in this assay (Q96SW2 whole entry partner): as the sequence (Q96SW2 whole entry) above

[8] = target: T1, Protein cereblon/Hepatocyte growth factor receptor; assay: In vivo PROTAC activity at CRBN/c-MET in BALB/c nude mouse xenografted with human MKN-45 cells assessed as decrease in c-MET protein level in tumor at 10 to 40 mg/kg, po administered once daily for 21 days and measured after 24 hrs post last dose by Western blot analysis; format: functional, organism-based; conditions: dose 10-40 mg/kg, time 22.0 day
Target sequence in this assay (P08581 25-1390 limits assumed): as the sequence (P08581 25-1390 limits assumed) above
Target sequence in this assay (Q96SW2 whole entry partner): as the sequence (Q96SW2 whole entry) above

[9] = target: T1, Protein cereblon/Hepatocyte growth factor receptor; assay: PROTAC activity at CRBN/c-MET in human MKN-45 cells assessed as induction of c-MET degradation at 6.25 nM incubated for 24 hrs by Western blot analysis; format: cell-based
Target sequence in this assay (P08581 25-1390 limits assumed): as the sequence (P08581 25-1390 limits assumed) above
Target sequence in this assay (Q96SW2 whole entry partner): as the sequence (Q96SW2 whole entry) above

MKN-45 [10] = assay: Antitumor activity against human MKN-45 cells xenografted in BALB/c nude mouse assessed as reduction in tumor growth administered orally as once daily dose for 21 days; format: functional; conditions: dose 10-40 mg/kg, route po, time 21.0 day
[11] = Toxicity in BALB/c nude mouse xenografted with human MKN-45 cells assessed as effect on kidney morphology at 10 to 40 mg/kg, po administered once daily for 21 days by H and E staining based analysis; format: organism-based; conditions: in vivo, 504 h, dose 10-40 mg/kg, time 21 day
[12] = target: Protein cereblon/Importin subunit alpha-1 (Homo sapiens) (UniProt P52292+Q96SW2); assay: PROTAC activity at CRBN/KPNA2 in human MKN-45 cells assessed as induction of c-MET degradation at 6.25 to 100 nM incubated for 24 hrs by Western blot analysis; format: cell-based; conditions: dose 6.25-100 nM
[13] = target: T1, Protein cereblon/Hepatocyte growth factor receptor; assay: PROTAC activity at CRBN/c-MET in human MKN-45 cells assessed as induction of c-MET degradation at 100 nM preincubated with pomalidomide for 2 hrs followed by compound addition and measured after 24 hrs by Western blot analysis; format: cell-based
Target sequence in this assay (P08581 25-1390 limits assumed): as the sequence (P08581 25-1390 limits assumed) above
Target sequence in this assay (Q96SW2 whole entry partner): as the sequence (Q96SW2 whole entry) above

[14] = MRT (0 to infinity) in male Sprague-Dawley rat at 10 mg/kg, po measured after 24 hrs by LC-MS/MS analysis; format: ADME, organism-based; conditions: in vivo
MKN-45 [15] = assay: Downregulation of CHCHD2 protein level in human MKN-45 cells at 100 nM incubated for 24 hrs by MS-based quantitative proteomics analysis; format: functional, cell-based
[16] = target: T1, Protein cereblon/Hepatocyte growth factor receptor; assay: PROTAC activity at CRBN/c-MET in human MKN-45 cells assessed as induction of c-MET degradation at 100 nM incubated for 2 to 16 hrs by Western blot analysis; format: cell-based; conditions: time 2-16 hrs
Target sequence in this assay (P08581 25-1390 limits assumed): as the sequence (P08581 25-1390 limits assumed) above
Target sequence in this assay (Q96SW2 whole entry partner): as the sequence (Q96SW2 whole entry) above

PC-9 [17] = assay: Cell cycle arrest in human PC-9 cells assessed as accumulation of cells at G0/G1 phase incubated for 48 hrs by PI staining based flow cytometric analysis; format: functional; conditions: dose 3.125-50 nM
[18] = Tmax in male Sprague-Dawley rat at 10 mg/kg, po measured after 24 hrs by LC-MS/MS analysis; format: ADME, organism-based; conditions: in vivo
[19] = Cmax in male Sprague-Dawley rat at 10 mg/kg, po measured after 24 hrs by LC-MS/MS analysis; format: ADME, organism-based; conditions: in vivo
[20] = target: T1, Protein cereblon/Hepatocyte growth factor receptor; assay: PROTAC activity at CRBN/c-MET in human MKN-45 cells assessed as induction of c-MET degradation by measuring maximal efficacy incubated for 24 hrs by Western blot analysis relative to control; format: cell-based
[21] = Toxicity in BALB/c nude mouse xenografted with human MKN-45 cells assessed as effect on heart morphology at 10 to 40 mg/kg, po administered once daily for 21 days by H and E staining based analysis; format: organism-based; conditions: in vivo, 504 h, dose 10-40 mg/kg, time 21 day
[22] = AUC (0 to infinity) in male Sprague-Dawley rat at 10 mg/kg, po measured after 24 hrs by LC-MS/MS analysis; format: ADME, organism-based; conditions: in vivo
PC-9 [23] = assay: Induction of apoptosis in human PC-9 cells at 3.125 to 50 nM incubated for 48 hrs by Annexin V-FITC/PI staining based flow cytometric analysis; format: functional, cell-based; conditions: dose 3.125-50 nM
[24] = target: T1, Protein cereblon/Hepatocyte growth factor receptor; assay: PROTAC activity at CRBN/c-MET in human PC-3 cells assessed as induction of c-MET degradation at 12.5 to 100 nM incubated for 24 hrs by Western blot analysis; format: cell-based; conditions: dose 12.5-100 nM
MKN-45 [25] = assay: Upregulation of PDCD4 protein level in human MKN-45 cells at 100 nM incubated for 24 hrs by MS-based quantitative proteomics analysis; format: functional, cell-based
Mus musculus = assay: Downregulation of c-MET protein level in BALB/c nude mouse lung xenografted with human MKN-45 cells at 10 mg/kg, po measured after 48 hrs by Western blot analysis; format: functional, organism-based
[26] = target: T1, Protein cereblon/Hepatocyte growth factor receptor; assay: PROTAC activity at CRBN/c-MET in human MKN-45 cells assessed as induction of c-MET degradation at 100 nM preincubated with capmatinib for 2 hrs followed by compound addition and measured after 24 hrs by Western blot analysis; format: cell-based
[27] = target: T1, Protein cereblon/Hepatocyte growth factor receptor; assay: PROTAC activity at CRBN/c-MET in human Hs746T cells assessed as induction of c-MET degradation at 12.5 to 200 nM incubated for 24 hrs by Western blot analysis; format: cell-based; conditions: dose 12.5-200 nM
[28] = target: T1, Protein cereblon/Hepatocyte growth factor receptor; assay: PROTAC activity at CRBN/c-MET in human MKN-45 cells assessed as induction of c-MET degradation at 6.25 to 100 nM incubated for 24 hrs by Western blot analysis; format: cell-based; conditions: dose 6.25-100 nM
[29] = target: T1, Protein cereblon/Hepatocyte growth factor receptor; assay: PROTAC activity at CRBN/c-MET in human MKN-45 cells assessed as induction of c-MET degradation at 100 nM preincubated with MLN4924 for 2 hrs followed by compound addition and measured after 24 hrs by Western blot analysis; format: cell-based
[30] = Toxicity in BALB/c nude mouse xenografted with human MKN-45 cells assessed as effect on spleen morphology at 10 to 40 mg/kg, po administered once daily for 21 days by H and E staining based analysis; format: organism-based; conditions: in vivo, 504 h, dose 10-40 mg/kg, time 21 day
MKN-45 [31] = assay: Downregulation of SLC7A1 protein level in human MKN-45 cells at 100 nM incubated for 24 hrs by MS-based quantitative proteomics analysis; format: functional, cell-based

half-life [1]: 5.35 h
Cmax [4]: 1650 ng/mL
DC50 [5]: 6.21 nM
Activity [6]: inactive
Activity [7]: 100%
Activity [8]: Active
Activity [9]: Active
Activity [12]: inactive
Activity [13]: inactive
MRT inf [14]: 6.66 h
Activity [16]: Active
Tmax [18]: 2 h
Cmax [19]: 70.7 ng/mL
Emax [20]: 96.8%
AUC(0-inf) [22]: 411 ng·h/mL
Activity [24]: inactive
Activity [26]: inactive
Activity [27]: Active
Activity [28]: Active
Activity [29]: inactive
Compound: O=C1CCC(N2C(=O)c3ccc(N4CCN(CC5CCN(C(=O)c6ccc(-c7cnc8ncc(Cc9ccc%10ncccc%10c9)n8n7)cc6F)CC5)CC4)cc3C2=O)C(=O)N1 (configuration not stated)
Activity [2]: 3.38%
Activity (MKN-45 [3]): Active; Significant Effect Observed
Activity (MKN-45 [10]): Dose-dependent-effect
Activity [11]: Non-toxic
Activity (MKN-45 [15]): Active
Activity (PC-9 [17]): Dose-dependent-effect
Activity [21]: Non-toxic
Activity (PC-9 [23]): Active; Little Effect Observed
Activity (MKN-45 [25]): Active
Activity (Mus musculus): Not active; Favorable Tissue Specificity Of Compound Observed
Activity [30]: Non-toxic
Activity (MKN-45 [31]): Active
